Results taken from US12708607B2, “Thromboxane receptor antagonist formulations” (ATXA THERAPEUTICS LIMITED, priority 2020, dated 2026).
Read-outs that look alike come from different tables or passages of the source.

Columns and labels:
[1] = tested on: TP (thromboxane A2 receptor); assay: whole blood platelet aggregation ex vivo after oral dosing, U46619-induced; type: in vivo, cynomolgus monkey; conditions: 100 mg/kg BID oral, Day 14; 1 μM U46619
Description: (§1) Whole blood platelet aggregation assays were performed ex vivo in blood samples taken from the NHPs (n=3) administered 100 mg/kg NTP42:KVA4, BID (200 mg/kg/day) for 14 days. In this type of platelet aggregation assay, a reduction in platelet numbers is indicative of platelet aggregation. Blood was collected prior to (pre-dose), and at 45 min- and 24 h-following the first daily dose, and platelet numbers determined in blood samples at baseline (untreated), and in blood samples incubated with drug vehicle, the thromboxane mimetic, U46619 or, as control, other platelet agonists (e.g., ADP, collagen, thrombin, ristocetin, epinephrine). Baseline platelet counts ranged from 120-190×10^3 platelets/μl.
(§2) Whole blood platelet aggregation assays were performed ex vivo in blood samples taken from the NHPs (n=3) administered 100 mg/kg NTP42:KVA4, BID (200 mg/kg/day) for 14 days. Blood was collected prior to (pre-dose), and at 45 min- and 24 h-following the first daily dose, and platelet numbers determined in blood samples at baseline (untreated), and in blood samples incubated with drug vehicle, the thromboxane mimetic, U46619 or, as control, 50 μM ADP. In this assay, a reduction in platelet numbers is indicative of platelet aggregation.

[2] = tested on: platelet aggregation induced by other platelet agonists; assay: whole blood platelet aggregation ex vivo after oral dosing, other platelet agonists (e.g. 50 μM ADP); type: in vivo, cynomolgus monkey; conditions: 100 mg/kg BID oral, Day 14
Description: as §1, §2

[3] = NTP42 levels in NHP plasma after repeat oral dosing; type: in vivo, cynomolgus monkey; conditions: for Cmax at 14 days: cynomolgus monkey, plasma, oral, 14 days repeat dosing of NTP42:KVA4 at 200 mg/kg/day
MCT-induced PAH = conditions: Mulvaney et al. 2020; cited from earlier work
Su/Hx-induced PAH = conditions: Mulvaney et al. 2020; cited from earlier work

NTP42 levels in NHP plasma 24 h post-dosing ([3]; 24 h post-dosing, 200 mg/kg/day for 14 days): still detectable
Cmax at 14 days ([3]; read-out: Cmax of NTP42 in NHP plasma): 13200 ng/mL
Cmax at 14 days ([3]; read-out: Cmax of NTP42 in NHP plasma, molar equivalent): 25 µM
NTP42 in NHP plasma prior to the first daily dose ([3]; pre-dose, Day 14): present
Structure (SMILES): CC(C)(C)NC(=O)NS(=O)(=O)c1cc(C#N)ccc1Oc1cccc(-c2ccc(OC(F)F)cc2)c1 [NTP42]
TXA2 (U46619)-induced / TP-mediated platelet aggregation ex vivo [1]: selectively inhibited
aggregation induced by other platelet agonists [2]: did not affect
efficacy of non-formulated drug in MCT-induced model of PAH (MCT-induced PAH): has shown efficacy
efficacy of non-formulated drug in Su/Hx-induced model of PAH (Su/Hx-induced PAH): has shown efficacy
